We go through 15 compounds from patent US20120115827A1, “3-AMINOBENZAMIDE COMPOUNDS AND VANILLOID RECEPTOR SUBTYPE 1 (VR1) INHIBITORS” (Japan Tobacco Inc., priority 2004, published 2012).

T1 sequence (Q8NER1 whole entry): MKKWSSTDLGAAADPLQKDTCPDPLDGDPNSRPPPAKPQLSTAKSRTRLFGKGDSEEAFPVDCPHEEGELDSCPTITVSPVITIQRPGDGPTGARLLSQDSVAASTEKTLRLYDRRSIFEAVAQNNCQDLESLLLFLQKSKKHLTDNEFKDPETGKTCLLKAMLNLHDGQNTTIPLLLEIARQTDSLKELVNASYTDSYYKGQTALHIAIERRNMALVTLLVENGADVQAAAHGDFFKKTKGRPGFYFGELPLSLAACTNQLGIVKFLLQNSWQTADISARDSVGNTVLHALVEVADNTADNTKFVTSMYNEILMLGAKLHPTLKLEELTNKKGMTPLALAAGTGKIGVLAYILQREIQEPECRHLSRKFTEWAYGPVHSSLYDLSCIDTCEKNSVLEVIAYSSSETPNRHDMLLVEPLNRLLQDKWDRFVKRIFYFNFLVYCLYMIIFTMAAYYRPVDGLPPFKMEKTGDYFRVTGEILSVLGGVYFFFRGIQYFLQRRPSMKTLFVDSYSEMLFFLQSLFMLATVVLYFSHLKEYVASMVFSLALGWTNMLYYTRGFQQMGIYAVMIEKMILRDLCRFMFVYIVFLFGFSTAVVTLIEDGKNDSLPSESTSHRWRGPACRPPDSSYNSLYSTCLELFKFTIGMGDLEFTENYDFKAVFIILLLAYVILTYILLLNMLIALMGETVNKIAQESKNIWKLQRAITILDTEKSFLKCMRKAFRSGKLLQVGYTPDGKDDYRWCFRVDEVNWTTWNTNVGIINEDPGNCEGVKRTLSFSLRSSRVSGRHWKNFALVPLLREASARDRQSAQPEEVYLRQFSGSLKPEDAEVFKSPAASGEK

The experiment has as its target T1, human VR1 (Homo sapiens, UniProt Q8NER1).
T1 construct: expressed in transfected cells
Put plainly: Inhibition of Ca2+ entry in cells caused by proton (VR1 agonist). The format is cell-based. The note with it: Rat glioma (C6BU1) cells stably expressing human VR1; proton stimulation to pH 5.5; Fura 2-AM fluorescence; read-out: In vitro IC50. The protocol: The assay for evaluation of VR1 inhibition by the inventive compounds will be described below. The assay was intended to evaluate in vitro inhibition of Ca^2+ entry in cells caused by proton, one of the VR1 agonists.
Rat glioma (C6BU1) cells stably expressing human VR1 were suspended in 20 mM MES buffer (at pH 6.8, contg. 20 mM 2-morpholinoethanesulfonate (referred to as MES hereinafter), 115 mM NaCl, 5 mM KCl, 1 mM MgCl2 and 14 mM D-glucose) to make a cell density of 1×10^6 cells/mL. A fluorescent dye, Fura 2-AM solution (Dojindo Corporate, Cat. No. 343-05401) was added to the suspension to make a 5 μM concentration thereof. Further, Pluronic F-127 (Wako Pure Chemical Industries, Ltd., Cat. No. P6866) was added to make a 0.1% content thereof. Then, the suspension was incubated at 37° C. for 30 min. The cells were harvested and washed three times with 20 mM MES buffer. The cells were suspended again to make a cell density of 5×10^5 cells/mL. A 500-μL portion of the suspension was taken with a cuvette (MC MEDICAL, INC., Cat. No. SSR3121), to which […] MES buffer containing 250 mM CaCl2 was added to incorporate Ca^2+ into the cells. At the same time, 5 μL of a test compound solution (in a range of 100 μM to 10 nM in DMSO) was also added to provide a final concentration thereof in a range of 1 μM to 0.1 nM. Alternatively, 5 μl of DMSO was added as control to provide a final concentration of 1% DMSO. The suspension was set in an intracellular ionometer (CAF-110; JASCO) 10 min after those additions. The cells were stimulated with protons by addition of 60 μL of 20 mM MES buffer at pH 1.1 to the suspension to set its pH at 5.5. The activity of the test compound was determined as a difference between the minimum of fluorescence intensity before agonist stimulation and its maximum after the stimulation. The value of IC50 was derived from percentage of inhibition by the test compound compared with the control.
Consider `NC(=O)CN(c1cc(C(=O)Nc2ccc(C(F)(F)F)cc2)ccc1Cl)c1ncc(C(F)(F)F)cc1Cl` [Example 68, 4-chloro-3-[N-(3-chloro-5-trifluoromethylpyridin-2-yl)-N-(carbamoylmethyl)amino]-N-(4-trifluoromethylphenyl)-benzamide], for which the IC50 – broadly, the concentration that gives 50% inhibition – was at most 100 nM.
On to `NC(=O)CN(c1ccc(Cl)cn1)c1cc(C(=O)Nc2ccc(OC(F)(F)F)cc2)ccc1Cl` [Example 69], for which the IC50 was at most 100 nM.
For `NC(=O)CN(c1ccc(Cl)cn1)c1cc(C(=O)Nc2ccc(C(F)(F)F)cc2)ccc1Cl` [Example 70], the IC50 is at most 100 nM.
For `COCc1cnc(N(CC(N)=O)c2cc(C(=O)Nc3ccc(OC(F)(F)F)cc3)ccc2Cl)c(Cl)c1` [Example 71, 4-chloro-3-[N-(3-chloro-5-methoxymethylpyridin-2-yl)-N-(carbamoylmethyl)amino]-N-(trifluoromethoxyphenyl)-benzamide], the concentration for half-maximal inhibition (IC50) is at most 100 nM.
For `COCc1cnc(N(CC(N)=O)c2cc(C(=O)Nc3ccc(C(F)(F)F)cc3)ccc2Cl)c(Cl)c1` [Example 72, 4-chloro-3-[N-(3-chloro-5-methoxymethylpyridin-2-yl)-N-(carbamoylmethyl)amino]-N-(trifluoromethylphenyl)-benzamide], the IC50 is at most 100 nM.
Turning to `CCOC(=O)c1cnc(N(C)c2cc(C(=O)Nc3ccc(C(C)(C)C)cc3)ccc2Cl)c(Cl)c1` [Example 73, Ethyl 6-{[5-(4-tert-butylphenylcarbamoyl)-2-chlorophenyl]-methyl-amino}-5-chloronicotinate], the 50% inhibitory concentration (IC50) fell in the range of 100 to 1000 nM.
The value for `CN(c1cc(C(=O)Nc2ccc(C(C)(C)C)cc2)ccc1Cl)c1ncc(C(N)=O)cc1Cl` [Example 75, 6-{[5-(4-tert-butylphenylcarbamoyl)-2-chlorophenyl]-methyl-amino}-5-chloronicotinamide] was at most 100 nM.
On to `CNC(=O)c1cnc(N(C)c2cc(C(=O)Nc3ccc(C(C)(C)C)cc3)ccc2Cl)c(Cl)c1` [Example 76, 6-{[5-(4-tert-butylphenylcarbamoyl)-2-chlorophenyl]-methyl-amino}-5-chloro-N-methylnicotinamide], for which the 50% inhibitory concentration (IC50) lay within 100 to 1000 nM.
Consider `CN(C)C(=O)c1cnc(N(C)c2cc(C(=O)Nc3ccc(C(C)(C)C)cc3)ccc2Cl)c(Cl)c1` [Example 77, 6-{[5-(4-tert-butylphenylcarbamoyl)-2-chlorophenyl]-methyl-amino}-5-chloro-N,N-dimethylnicotinamide], for which the half-inhibitory concentration (IC50) lay in the range of 100 to 1000 nM.
To `CN(c1cc(C(=O)Nc2ccc(C(C)(C)C)cc2)ccc1Cl)c1ncc(CO)cc1Cl` [Example 78, N-(4-tert-butylphenyl)-4-chloro-3-[N-(3-chloro-5-hydroxymethylpyridin-2-yl)-N-methyl-amino]benzamide] belongs at most 100 nM; to `CN(c1cc(C(=O)Nc2ccc(C(F)(F)F)cc2)ccc1Cl)c1ncc(CO)cc1Cl` [Example 79, 4-chloro-3-[N-(3-chloro-5-hydroxymethylpyridin-2-yl)-N-methyl-amino]-N-(4-trifluoromethylphenyl)-benzamide], at most 100 nM.
For `CN(c1cc(C(=O)Nc2ccc(Cl)cc2)ccc1Cl)c1ncc(CO)cc1Cl` [Example 80, 4-chloro-3-[N-(3-chloro-5-hydroxymethylpyridin-2-yl)-N-methyl-amino]-N-(4-chlorophenyl)-benzamide], the IC50 is at most 100 nM.
Take `CN(c1cc(C(=O)Nc2ccc(OC(F)(F)F)cc2)ccc1Cl)c1ncc(CO)cc1Cl` [Example 81, 4-chloro-3-[N-(3-chloro-5-hydroxymethylpyridin-2-yl)-N-methyl-amino]-N-(4-trifluoromethoxyphenyl)-benzamide]: the IC50 was at most 100 nM.
To `CN(c1cc(C(=O)Nc2ccc(C(F)(F)F)cc2)ccc1F)c1ncc(CO)cc1Cl` [Example 82, 3-[N-(3-chloro-5-hydroxymethylpyridin-2-yl)-N-methyl-amino]-4-fluoro-N-(4-trifluoromethylphenyl)-benzamide] belongs at most 100 nM; to `CN(c1cc(C(=O)Nc2ccc(OC(F)(F)F)cc2)ccc1F)c1ncc(CO)cc1Cl` [Example 83, 3-[N-(3-chloro-5-hydroxymethylpyridin-2-yl)-N-methyl-amino]-4-fluoro-N-(4-trifluoromethoxyphenyl)-benzamide], at most 100 nM.
